Patent US12077503B2, “Substituted cyclic amides and their use as herbicides” (FMC CORPORATION, priority 2015, dated 2024)

What was measured:
Test in all cases: Test C preemergence
Format in all cases: in vivo
[1] = system: Galium (catchweed bedstraw, Galium aparine); settings: for Plant response rating, Galium: scale 0 to 100, 0 no effect, 100 complete control
Summary of the method: (§1)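 Herbicidal effect, applied preemergence to sown seeds or postemergence to 1- to 4-leaf plants, was scored visually 13 to 15 d after application, 0 to 100 versus controls.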

[2] = system: lambsquarters (Chenopodium album); settings: for Plant response rating, Lambsquarters: scale 0 to 100, 0 no effect, 100 complete control
Summary of the method: as §1

[3] = system: morningglory (Ipomoea coccinea); settings: for Plant response rating, Morningglory: scale 0 to 100, 0 no effect, 100 complete control
Summary of the method: as §1

corn (Zea mays) = settings: for Plant response rating, Corn: scale 0 to 100, 0 no effect, 100 complete control
Summary of the method: as §1

[4] = system: pigweed (Amaranthus retroflexus); settings: for Plant response rating, Pigweed: scale 0 to 100, 0 no effect, 100 complete control
Summary of the method: as §1

[5] = system: velvetleaf (Abutilon theophrasti); settings: for Plant response rating, Velvetleaf: scale 0 to 100, 0 no effect, 100 complete control
Summary of the method: as §1

[6] = system: ragweed (common ragweed, Ambrosia elatior); settings: for Plant response rating, Ragweed: scale 0 to 100, 0 no effect, 100 complete control
Summary of the method: as §1

[7] = system: ryegrass, Italian (Italian ryegrass, Lolium multiflorum); settings: for Plant response rating, Ryegrass, Italian: scale 0 to 100, 0 no effect, 100 complete control
Summary of the method: as §1

[8] = system: wheat (winter wheat, Triticum aestivum); settings: for Plant response rating, Wheat: scale 0 to 100, 0 no effect, 100 complete control
Summary of the method: as §1

[9] = system: oilseed rape (Brassica napus); settings: for Plant response rating, Oilseed Rape: scale 0 to 100, 0 no effect, 100 complete control
Summary of the method: as §1

[10] = system: crabgrass, large (large crabgrass, Digitaria sanguinalis); settings: for Plant response rating, Crabgrass, Large: scale 0 to 100, 0 no effect, 100 complete control
Summary of the method: as §1

[11] = system: nutsedge, yellow (yellow nutsedge, Cyperus esculentus); settings: for Plant response rating, Nutsedge, Yellow: scale 0 to 100, 0 no effect, 100 complete control
Summary of the method: as §1

[12] = system: barnyardgrass (Echinochloa crus-galli); settings: for Plant response rating, Barnyardgrass: scale 0 to 100, 0 no effect, 100 complete control
Summary of the method: as §1

[13] = system: johnsongrass (Sorghum halepense); settings: for Plant response rating, Johnsongrass: scale 0 to 100, 0 no effect, 100 complete control
Summary of the method: as §1

[14] = system: foxtail, giant (giant foxtail, Setaria faberii); settings: for Plant response rating, Foxtail, Giant: scale 0 to 100, 0 no effect, 100 complete control
Summary of the method: as §1

[15] = system: blackgrass (Alopecurus myosuroides); settings: for Plant response rating, Blackgrass: scale 0 to 100, 0 no effect, 100 complete control
Summary of the method: as §1

soybean (Glycine max) = settings: for Plant response rating, Soybean: scale 0 to 100, 0 no effect, 100 complete control
Summary of the method: as §1

[16] = 31 g ai/ha, 0 is no effect, 100 is complete control

**Q.** Which results are given for `CN1CC(c2ccc(F)c(F)c2)C(C(=O)Nc2ccccc2C(F)(F)F)C1=O` (centres unmarked) [Compound 641]?
**A.** Plant response rating (scale of 0 to 100), Galium [1, 16]: 0; Plant response rating, Galium ([1]; 62 g ai/ha): 30; Plant response rating, Galium ([1]; 125 g ai/ha): 90; Plant response rating, Galium ([1]; 250 g ai/ha): 85; Plant response rating (scale of 0 to 100), Lambsquarters [2, 16]: 0; Plant response rating, Lambsquarters ([2]; 62 g ai/ha): 40; Plant response rating, Lambsquarters ([2]; 125 g ai/ha): 40; Plant response rating, Lambsquarters ([2]; 250 g ai/ha): 65; Plant response rating (scale of 0 to 100), Morningglory [3, 16]: 0; Plant response rating, Morningglory ([3]; 62 g ai/ha): 0; Plant response rating, Morningglory ([3]; 125 g ai/ha): 0; Plant response rating, Morningglory ([3]; 250 g ai/ha): 0; Plant response rating (scale of 0 to 100), Corn (corn (Zea mays); [16]): 0; Plant response rating, Corn (corn (Zea mays); 62 g ai/ha): 0; Plant response rating, Corn (corn (Zea mays); 125 g ai/ha): 0; Plant response rating, Corn (corn (Zea mays); 250 g ai/ha): 10; Plant response rating (scale of 0 to 100), Pigweed [4, 16]: 0; Plant response rating, Pigweed ([4]; 62 g ai/ha): 25; Plant response rating, Pigweed ([4]; 125 g ai/ha): 60; Plant response rating, Pigweed ([4]; 250 g ai/ha): 70; Plant response rating (scale of 0 to 100), Velvetleaf [5, 16]: 0; Plant response rating, Velvetleaf ([5]; 62 g ai/ha): 35; Plant response rating, Velvetleaf ([5]; 125 g ai/ha): 25; Plant response rating, Velvetleaf ([5]; 250 g ai/ha): 45; Plant response rating (scale of 0 to 100), Ragweed [6, 16]: 0; Plant response rating, Ragweed ([6]; 62 g ai/ha): 25; Plant response rating, Ragweed ([6]; 125 g ai/ha): 30; Plant response rating, Ragweed ([6]; 250 g ai/ha): 45; Plant response rating (scale of 0 to 100), Ryegrass, Italian [7, 16]: 0; Plant response rating, Ryegrass, Italian ([7]; 62 g ai/ha): 10; Plant response rating, Ryegrass, Italian ([7]; 125 g ai/ha): 35; Plant response rating, Ryegrass, Italian ([7]; 250 g ai/ha): 70; Plant response rating (scale of 0 to 100), Wheat [8, 16]: 5; Plant response rating, Wheat ([8]; 62 g ai/ha): 0; Plant response rating, Wheat ([8]; 125 g ai/ha): 35; Plant response rating, Wheat ([8]; 250 g ai/ha): 70; Plant response rating (scale of 0 to 100), Oilseed Rape [9, 16]: 80; Plant response rating, Oilseed Rape ([9]; 62 g ai/ha): 85; Plant response rating, Oilseed Rape ([9]; 125 g ai/ha): 85; Plant response rating, Oilseed Rape ([9]; 250 g ai/ha): 90; Plant response rating (scale of 0 to 100), Crabgrass, Large [10, 16]: 98; Plant response rating, Crabgrass, Large ([10]; 62 g ai/ha): 100; Plant response rating, Crabgrass, Large ([10]; 125 g ai/ha): 100; Plant response rating, Crabgrass, Large ([10]; 250 g ai/ha): 100; Plant response rating (scale of 0 to 100), Nutsedge, Yellow [11, 16]: 0; Plant response rating, Nutsedge, Yellow ([11]; 62 g ai/ha): 0; Plant response rating, Nutsedge, Yellow ([11]; 125 g ai/ha): 0; Plant response rating, Nutsedge, Yellow ([11]; 250 g ai/ha): 0; Plant response rating (scale of 0 to 100), Barnyardgrass [12, 16]: 85; Plant response rating, Barnyardgrass ([12]; 62 g ai/ha): 90; Plant response rating, Barnyardgrass ([12]; 125 g ai/ha): 90; Plant response rating, Barnyardgrass ([12]; 250 g ai/ha): 95; Plant response rating (scale of 0 to 100), Johnsongrass [13, 16]: 0; Plant response rating, Johnsongrass ([13]; 62 g ai/ha): 0; Plant response rating, Johnsongrass ([13]; 125 g ai/ha): 10; Plant response rating, Johnsongrass ([13]; 250 g ai/ha): 60; Plant response rating (scale of 0 to 100), Foxtail, Giant [14, 16]: 90; Plant response rating, Foxtail, Giant ([14]; 62 g ai/ha): 90; Plant response rating, Foxtail, Giant ([14]; 125 g ai/ha): 90; Plant response rating, Foxtail, Giant ([14]; 250 g ai/ha): 95; Plant response rating (scale of 0 to 100), Blackgrass [15, 16]: 0; Plant response rating, Blackgrass ([15]; 62 g ai/ha): 45; Plant response rating, Blackgrass ([15]; 125 g ai/ha): 30; Plant response rating, Blackgrass ([15]; 250 g ai/ha): 70; Plant response rating (scale of 0 to 100), Soybean (soybean (Glycine max); [16]): 0; Plant response rating, Soybean (soybean (Glycine max); 62 g ai/ha): 0; Plant response rating, Soybean (soybean (Glycine max); 125 g ai/ha): 10; Plant response rating, Soybean (soybean (Glycine max); 250 g ai/ha): 100
